According to the CombiSolv-Exp solvation set (Vermeire and Green 2021):

Assay: solvent given as SMILES
[1] = in CCCCCCCCC=CCCCCCCCC(=O)OCC(COC(=O)CCCCCCCC=CCCCCCCCC)OC(=O)CCCCCCCC=CCCCCCCCC

In the case of `Oc1c(I)cc(I)cc1I`, the “solvation free energy, 298 K” value (in CC(C)CC(C)(C)C) is reported as -12.4 kcal/mol, the “solvation free energy, 298 K” value (in CCCCOCCCC) is reported as -14.2 kcal/mol and the “solvation free energy, 298 K” value (in O) is reported as -7.16 kcal/mol.

For `O=C(O)c1ccc(Cl)c([N+](=O)[O-])c1`, the “solvation free energy, 298 K” value (in C1CCOC1) was -14.2 kcal/mol, the “solvation free energy, 298 K” value (in C1COCCO1) was -14.2 kcal/mol and the “solvation free energy, 298 K” value (in CC(C)(C)O) was -13.3 kcal/mol. The “solvation free energy, 298 K” value (in CC(C)CCO) was -13.1 kcal/mol, the “solvation free energy, 298 K” value (in CC(C)CO) was -12.9 kcal/mol and the “solvation free energy, 298 K” value (in CC(C)O) was -13.4 kcal/mol. For the same molecule, the “solvation free energy, 298 K” value (in CCC(C)O) was -13.2 kcal/mol, the “solvation free energy, 298 K” value (in CCCC(=O)OC) was -13 kcal/mol and the “solvation free energy, 298 K” value (in CCCC(C)O) was -13.2 kcal/mol. For the same molecule, the “solvation free energy, 298 K” value (in CCCCCCCCCCO) was -12.9 kcal/mol, the “solvation free energy, 298 K” value (in CCCCCCCCO) was -13.1 kcal/mol and the “solvation free energy, 298 K” value (in CCCCCCCO) was -13.1 kcal/mol. The “solvation free energy, 298 K” value (in CCCCCCO) was -13.1 kcal/mol, the “solvation free energy, 298 K” value (in CCCCCO) was -13.2 kcal/mol and the “solvation free energy, 298 K” value (in CCCCO) was -13.2 kcal/mol. The “solvation free energy, 298 K” value (in CCCCOC(C)=O) was -13.1 kcal/mol, the “solvation free energy, 298 K” value (in CCCO) was -13.3 kcal/mol and the “solvation free energy, 298 K” value (in CCCOC(C)=O) was -12.8 kcal/mol. The “solvation free energy, 298 K” value (in CCO) was -13.5 kcal/mol, the “solvation free energy, 298 K” value (in CCOC(C)=O) was -13.3 kcal/mol and the “solvation free energy, 298 K” value (in CCOCC) was -13.1 kcal/mol. The “solvation free energy, 298 K” value (in CN(C)C=O) was -14.1 kcal/mol, the “solvation free energy, 298 K” value (in COC(C)=O) was -13.4 kcal/mol and the “solvation free energy, 298 K” value (in O) was -9.84 kcal/mol.

In the case of `CCCCSP(=O)(O)SCCCC`, the “solvation free energy, 298 K” value (in O) is reported as -8.03 kcal/mol.

With `ClCC(Cl)Cl` the “solvation free energy, 298 K” value (in CCCCCCCCO) was -4.63 kcal/mol, the “solvation free energy, 298 K” value (in ClC(Cl)(Cl)Cl) was -5.06 kcal/mol and the “solvation free energy, 298 K” value (in ClC(Cl)Cl) was -5.28 kcal/mol. For the same molecule, the “solvation free energy, 298 K” value (in ClCCCl) was -5.47 kcal/mol and the “solvation free energy, 298 K” value (in O) was -1.99 kcal/mol.

In the case of `CC=C(C)C=CC=C(C)C`, the “solvation free energy, 298 K” value (in O) is reported as -0.55 kcal/mol.

For `Clc1cc(Cl)c(Cl)c(Cl)c1Cl`, the “solvation free energy, 298 K” value [1] was -8.79 kcal/mol, the “solvation free energy, 298 K” value (in CCCCCCCCO) was -8.85 kcal/mol and the “solvation free energy, 298 K” value (in O) was -1.69 kcal/mol.

In the case of `Oc1ccccc1`, the “solvation free energy, 298 K” value (in CC(C)CC(C)(C)C) is reported as -5.23 kcal/mol, the “solvation free energy, 298 K” value (in CCCCCCC) is reported as -4.97 kcal/mol and the “solvation free energy, 298 K” value (in CCCCCCCCCC) is reported as -5.49 kcal/mol. The “solvation free energy, 298 K” value (in Cc1ccc(C)cc1) was -6.77 kcal/mol, the “solvation free energy, 298 K” value (in Cc1cccc(C)c1) was -6.78 kcal/mol and the “solvation free energy, 298 K” value (in Cc1ccccc1C) was -6.84 kcal/mol. The “solvation free energy, 298 K” value (in O) was -6.62 kcal/mol.

With `CCCCCCCCCCCCCCCC` the “solvation free energy, 298 K” value (in CCO) was -8.9 kcal/mol, the “solvation free energy, 298 K” value (in ClC(Cl)(Cl)Cl) was -11.4 kcal/mol and the “solvation free energy, 298 K” value (in ClCCCl) was -9.66 kcal/mol. The “solvation free energy, 298 K” value (in O=Cc1ccco1) was -7.93 kcal/mol and the “solvation free energy, 298 K” value (in OCCOCCO) was -5.77 kcal/mol.

For `Clc1ccc(-c2ccc(Cl)c(Cl)c2)c(Cl)c1`, the “solvation free energy, 298 K” value (in O) was -3.15 kcal/mol.

In the case of `c1cc[nH]c1`, the “solvation free energy, 298 K” value (in O) is reported as -4.78 kcal/mol.

In the case of `C#CCCCCC`, the “solvation free energy, 298 K” value (in C1CCC2CCCCC2C1) is reported as -4.37 kcal/mol, the “solvation free energy, 298 K” value (in C1CCC(C2CCCCC2)CC1) is reported as -4.33 kcal/mol and the “solvation free energy, 298 K” value (in CN(C)C=O) is reported as -4.37 kcal/mol. The “solvation free energy, 298 K” value (in CS(C)=O) was -3.95 kcal/mol, the “solvation free energy, 298 K” value (in N#CCCCCC#N) was -3.83 kcal/mol and the “solvation free energy, 298 K” value (in NCCO) was -2.8 kcal/mol. For the same molecule, the “solvation free energy, 298 K” value (in O) was 0.59 kcal/mol, the “solvation free energy, 298 K” value (in O=Cc1ccco1) was -4.12 kcal/mol and the “solvation free energy, 298 K” value (in OCc1ccco1) was -3.93 kcal/mol. For the same molecule, the “solvation free energy, 298 K” value (in c1ccc2c(c1)CCCC2) was -4.66 kcal/mol and the “solvation free energy, 298 K” value (in c1ccc(C2CCCCC2)cc1) was -4.56 kcal/mol.

For `Brc1ccc(Br)cc1`, the “solvation free energy, 298 K” value (in CC(C)(C)O) was -6.86 kcal/mol, the “solvation free energy, 298 K” value (in CC(C)CCO) was -7.01 kcal/mol and the “solvation free energy, 298 K” value (in CC(C)CO) was -6.92 kcal/mol. The “solvation free energy, 298 K” value (in CCC(C)O) was -6.94 kcal/mol, the “solvation free energy, 298 K” value (in CCCC(C)O) was -6.98 kcal/mol and the “solvation free energy, 298 K” value (in CCCCCC) was -7.25 kcal/mol. The “solvation free energy, 298 K” value (in CCCCCCC) was -7.55 kcal/mol, the “solvation free energy, 298 K” value [1] was -7.01 kcal/mol and the “solvation free energy, 298 K” value (in CCCCCCCCO) was -7.11 kcal/mol. For the same molecule, the “solvation free energy, 298 K” value (in CCCCOCCCC) was -7.74 kcal/mol, the “solvation free energy, 298 K” value (in CCOCC) was -8.21 kcal/mol and the “solvation free energy, 298 K” value (in COC(C)(C)C) was -7.73 kcal/mol. For the same molecule, the “solvation free energy, 298 K” value (in ClC(Cl)(Cl)Cl) was -7.9 kcal/mol.

With `CCOP(=O)(OCC)OCC` the “solvation free energy, 298 K” value (in O) was -7.5 kcal/mol.

For `CI`, the “solvation free energy, 298 K” value (in Brc1cccc2ccccc12) was -3.3 kcal/mol, the “solvation free energy, 298 K” value (in CC(=O)N(C)C) was -3.63 kcal/mol and the “solvation free energy, 298 K” value (in CC(=O)OCc1ccccc1) was -3.34 kcal/mol. For the same molecule, the “solvation free energy, 298 K” value (in CC(C)=O) was -3.56 kcal/mol, the “solvation free energy, 298 K” value (in CC(C)CC(C)(C)C) was -2.94 kcal/mol and the “solvation free energy, 298 K” value (in CCC(C)=O) was -3.48 kcal/mol. The “solvation free energy, 298 K” value (in CCCCCCC) was -3.03 kcal/mol, the “solvation free energy, 298 K” value (in CCCCCCCC) was -2.99 kcal/mol and the “solvation free energy, 298 K” value (in CCCCCCCCO) was -2.95 kcal/mol. For the same molecule, the “solvation free energy, 298 K” value (in CCCCCl) was -3.44 kcal/mol, the “solvation free energy, 298 K” value (in CCCCO) was -3.04 kcal/mol and the “solvation free energy, 298 K” value (in CCO) was -2.99 kcal/mol. The “solvation free energy, 298 K” value (in CCOC(C)=O) was -3.46 kcal/mol, the “solvation free energy, 298 K” value (in CN1CCCC1=O) was -3.77 kcal/mol and the “solvation free energy, 298 K” value (in CN(C)C=O) was -3.49 kcal/mol. The “solvation free energy, 298 K” value (in CO) was -3.21 kcal/mol, the “solvation free energy, 298 K” value (in Cc1ccc(C)cc1) was -3.47 kcal/mol and the “solvation free energy, 298 K” value (in ClC(Cl)(Cl)Cl) was -3.49 kcal/mol. For the same molecule, the “solvation free energy, 298 K” value (in ClC(Cl)Cl) was -3.78 kcal/mol, the “solvation free energy, 298 K” value (in ClCCCl) was -3.62 kcal/mol and the “solvation free energy, 298 K” value (in ClCCl) was -3.83 kcal/mol. For the same molecule, the “solvation free energy, 298 K” value (in N#Cc1ccccc1) was -3.41 kcal/mol, the “solvation free energy, 298 K” value (in O) was -0.89 kcal/mol and the “solvation free energy, 298 K” value (in O=C1CCCCC1) was -3.58 kcal/mol. The “solvation free energy, 298 K” value (in c1ccc2ncccc2c1) was -3.4 kcal/mol.

With `Clc1cc(Cl)c(-c2c(Cl)cc(Cl)cc2Cl)c(Cl)c1` the “solvation free energy, 298 K” value (in CCCCCCCCO) was -12.5 kcal/mol and the “solvation free energy, 298 K” value (in O) was -1.96 kcal/mol.

In the case of `CC(=O)CCCCC(C)C`, the “solvation free energy, 298 K” value (in NC=O) is reported as -5.09 kcal/mol and the “solvation free energy, 298 K” value (in O) is reported as -2.84 kcal/mol.

In the case of `COc1cc(C)ccc1O`, the “solvation free energy, 298 K” value (in O) is reported as -5.8 kcal/mol.

In the case of `CC(C)S`, the “solvation free energy, 298 K” value (in O) is reported as -0.7 kcal/mol.

In the case of `CCCCCC=O`, the “solvation free energy, 298 K” value (in CCCCCCCC) is reported as -4.76 kcal/mol, the “solvation free energy, 298 K” value (in CCCCCCCCCCCCCCCC) is reported as -4.52 kcal/mol and the “solvation free energy, 298 K” value (in CCCCCCCCO) is reported as -5.95 kcal/mol. The “solvation free energy, 298 K” value (in NC=O) was -4.02 kcal/mol, the “solvation free energy, 298 K” value (in O) was -2.74 kcal/mol and the “solvation free energy, 298 K” value (in [2H]O[2H]) was -2.75 kcal/mol.

In the case of `O=C(c1ccc(Br)cc1)N(O)c1ccc(Cl)cc1`, the “solvation free energy, 298 K” value (in O) is reported as -11.6 kcal/mol.

With `C1CCNC1` the “solvation free energy, 298 K” value (in C1CCCCC1) was -4.19 kcal/mol, the “solvation free energy, 298 K” value (in CCCCCCCCO) was -5.55 kcal/mol and the “solvation free energy, 298 K” value (in O) was -5.48 kcal/mol.
